From US5629347A, “Aromatic compounds, pharmaceutical compositions containing them and their use in therapy” (Merck Sharp & Dohme Ltd., priority 1991, dated 1997)
Counter-ions that a name gives are not always drawn.

Target: human NK1R (Homo sapiens, UniProt P25103)
Experiment: biochemical
Assay type: binding
Details: displacement of 125I-substance P; human NK1R in COS or CHO cells
Method: To express the cloned human neurokinin-1-receotor (NK1R) transiently in COS, the cDNA for the human NK1R was cloned into the expression vector pCDM9 which was derived from pCDM8 (INVITROGEN) by inserting the ampicillin resistance gene (nucleotide 1973 to 2964 from BLUESCRIPT SK+ (trademark, […], La Jolla, Calif., U.S.A.)) into the Sac II site. Transfection of 20 ug of the plasmid DNA into 10 million COS cells was achieved by electroporation in 800 μl of transfection buffer (135 mM NaCl, 1.2 mM CaCl2, 1.2 mM MgCl2, 2.4 mM K2 HPO4, 0.6 mM KH2 PO4, 10 mM glucose, 10 mM N-2-hydroxyethyl-piperazine-N'-2-ethane sulphonic acid (HEPES) pH 7.4) at 260 V and 950 μF using the IBI GENEZAPPER (trademark IBI, New Haven, Conn., U.S.A.). The cells were incubated in 10% fetal calf serum, 2 mM glutamine, 100 U/ml penicillin-streptomycin, and 90% DMEM media (GIBCO, Grand Island, N.Y., U.S.A.) in 5% CO2 at 37° C. for three days before the binding assay.
To establish a stable cell line expressing cloned human NK1R, the cDNA was subcloned into the vector pRcCMV (INVITROGEN). Transfection of 20 ug of the plasmid DNA into CHO cells was achieved by electroporation in 800 μl of transfection buffer supplemented with 0.625 mg/ml Herring sperm DNA at 300 V and 950 μF using the IBI GENEZAPPER (IBI). The transfected cells were incubated. in CHO media [10% fetal calf serum, 100 U/ml penicillin-streptomycin, 2 mM glutamine, 1/500 hypoxanthinethymidine (ATCC), 90% IMDM media (JRH BIOSCIENCES, Lenexa, Kans., U.S.A.), 0.7 mg/ml G418 (GIBCO)] in 5% CO2 at 37° C. until colonies were visible. Each colony was separated and propagated. The cell clone with the highest number of human NK1R was selected for subsequent applications such as drug screening.
The binding assay of human NK1R expressed in either COS or CHO cells is based on the use of ^125 I-substance P (^125 I-SP, from DU PONT, Boston, Mass.) as a radioactively labeled ligand which competes with unlabeled substance P or any other ligand for binding to the human NK1R. […] The tubes were incubated at 4° C. or at room temperature for 1 hour with gentle shaking. The bound radioactivity was separated from unbound radioactivity by GF/C filter (BRANDEL, Gaithersburg, Md.) which was prewetted with 0.1% polyethylenimine. The filter was washed with 3 ml of wash buffer (50 mM Tris pH 7.5, 5 mM MnCl2, 150 mM NaCl) three times and its radioactivity was determined by gamma counter.

Sequence of human NK1R (P25103 whole entry): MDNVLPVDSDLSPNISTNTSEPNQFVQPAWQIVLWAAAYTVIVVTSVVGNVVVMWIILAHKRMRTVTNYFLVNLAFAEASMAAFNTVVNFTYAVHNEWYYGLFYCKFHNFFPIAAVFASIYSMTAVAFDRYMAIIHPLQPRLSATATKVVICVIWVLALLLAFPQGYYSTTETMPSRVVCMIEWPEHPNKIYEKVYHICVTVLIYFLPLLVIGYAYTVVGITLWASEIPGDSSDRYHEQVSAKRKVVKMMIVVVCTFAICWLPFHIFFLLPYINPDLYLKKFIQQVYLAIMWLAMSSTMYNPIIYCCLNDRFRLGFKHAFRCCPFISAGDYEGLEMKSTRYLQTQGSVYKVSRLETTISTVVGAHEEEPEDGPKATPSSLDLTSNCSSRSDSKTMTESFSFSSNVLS

Compound | IC50
NC(C(=O)NCc1cc(C(F)(F)F)cc(C(F)(F)F)c1)C(c1ccccc1)c1ccccc1 (stereo not shown) [Example 67, 2-Amino-3,3-diphenyl-N-((3,5-bis(trifluoromethyl)phenyl)methyl)propionamide] | 220 nM
Cc1cc(CNCC(N)C(c2ccccc2)c2ccccc2)cc(C(F)(F)F)c1 (stereo not shown) [Example 68, 2-Ammonium-3,3-diphenyl-1-((3-methyl, 5-trifluoromethyl)phenyl)methylamino)propane oxalate salt] | 400 nM
CS(=O)(=O)NC(COCc1cc(C(F)(F)F)cc(C(F)(F)F)c1)C(c1ccccc1)c1ccccc1 (stereo not shown) [Example 69, 1-((3,5-Bis(trifluoromethyl)phenyl)methyloxy)-3,3-diphenyl-2-methylsulphonamidopropane] | 35 nM
CN(CC(N)=O)C(COCc1cc(C(F)(F)F)cc(C(F)(F)F)c1)C(c1ccccc1)c1ccccc1 (stereo not shown) [Example 72, 1-((3,5-Bis(trifluoromethyl)phenyl)methyloxy)-2-(N-((carboxamido)methyl)-N-methyl)ammonium-3,3-diphenylpropane oxalate salt] | 7 nM
